Laboratory results: ChEMBL document CHEMBL1130486, “Novel 5-amino-6-methylquinolone antibacterials: A new class of non-6-fluoroquinolones” (1997)
Values after ≈ are worked out from the molar mass of the structure shown.

What was measured:
Escherichia coli [1] = test: In vitro minimum inhibitory concentration was determined for antibacterial activity against Escherichia coli TEM9 2639E strain.; format: functional
Enterococcus faecalis = test: In vitro minimum inhibitory concentration was determined for antibacterial activity against […] 29212 strain.; format: functional
Staphylococcus aureus [2] = test: In vitro minimum inhibitory concentration was determined for antibacterial activity against Staphylococcus aureus giorgio strain.; format: functional
Klebsiella aerogenes [3] = test: In vitro minimum inhibitory concentration was determined for antibacterial activity against Klebsiella aerogenes 1082E strain.; format: functional
Staphylococcus aureus [4] = test: In vitro minimum inhibitory concentration was determined for antibacterial activity against Staphylococcus aureus 77 strain.; format: functional
[5] = tested on: Acinetobacter calcoaceticus; test: In vitro minimum inhibitory concentration was determined for antibacterial activity against Acinetobacter calcoaceticus 15473 strain.; format: functional
[6] = tested on: Staphylococcus epidermidis; test: In vitro minimum inhibitory concentration was determined for antibacterial activity against Staphylococcus epidermis 887E strain.; format: functional
Enterobacter cloacae [7] = test: In vitro minimum inhibitory concentration was determined for antibacterial activity against Enterobacter cloacae 1194E strain.; format: functional
Staphylococcus aureus [8] = test: In vitro minimum inhibitory concentration was determined for antibacterial activity against Staphylococcus aureus 241 strain.; format: functional
Salmonella typhimurium = test: In vitro minimum inhibitory concentration was determined for antibacterial activity against Salmonella Typhimurium 14028 strain.; format: functional, Salmonella enterica subsp. enterica serovar Typhimurium; conditions: Salmonella enterica
Staphylococcus aureus [9] = test: In vitro minimum inhibitory concentration was determined for antibacterial activity against Staphylococcus aureus 6538p strain.; format: functional
Micrococcus luteus = test: In vitro minimum inhibitory concentration was determined for antibacterial activity against Micrococcus luteus ATCC 9341 strain.; format: functional
Pseudomonas aeruginosa [10] = test: In vitro minimum inhibitory concentration was determined for antibacterial activity against Pseudomonas aeruginosa 1012E strain.; format: functional
Klebsiella aerogenes [11] = test: In vitro minimum inhibitory concentration was determined for antibacterial activity against Klebsiella aerogenes 1076E strain.; format: functional
Escherichia coli [12] = test: In vitro minimum inhibitory concentration was determined for antibacterial activity against Escherichia coli 10536 strain; format: functional
[13] = tested on: Staphylococcus epidermidis; test: In vitro minimum inhibitory concentration was determined for antibacterial activity against Staphylococcus epidermis 178 strain.; format: functional
Pseudomonas aeruginosa [14] = test: In vitro minimum inhibitory concentration was determined for antibacterial activity against Pseudomonas aeruginosa 10145 strain.; format: functional
Citrobacter koseri = test: In vitro minimum inhibitory concentration was determined for antibacterial activity against Citrobacter diversus 2046E strain.; format: functional
Escherichia coli [15] = test: In vitro minimum inhibitory concentration was determined for antibacterial activity against Escherichia coli 851E strain.; format: functional
Bacillus subtilis = test: In vitro minimum inhibitory concentration was determined for antibacterial activity against Bacillus subtilis ATCC 6633 strain.; format: functional
Escherichia coli [16] = test: In vitro minimum inhibitory concentration was determined for antibacterial activity against Escherichia coli 3190Y strain.; format: functional
Escherichia coli [17] = test: In vitro minimum inhibitory concentration was determined for antibacterial activity against Escherichia coli TEM5 3739E strain.; format: functional
Enterobacter cloacae [18] = test: In vitro minimum inhibitory concentration was determined for antibacterial activity against Enterobacter cloacae p99 strain.; format: functional

SMILES | MIC (Escherichia coli [1]) [µg/mL] | MIC (Enterococcus faecalis) [µg/mL] | MIC (Staphylococcus aureus [2]) [µg/mL] | MIC (Klebsiella aerogenes [3]) [µg/mL] | MIC (Staphylococcus aureus [4]) [µg/mL] | MIC [5] [µg/mL] | MIC [6] [µg/mL] | MIC (Enterobacter cloacae [7]) [µg/mL] | MIC (Staphylococcus aureus [8]) [µg/mL] | MIC (Salmonella typhimurium) [µg/mL] | MIC (Staphylococcus aureus [9]) [µg/mL] | MIC (Micrococcus luteus) [µg/mL] | MIC (Pseudomonas aeruginosa [10]) [µg/mL] | MIC (Klebsiella aerogenes [11]) [µg/mL] | MIC (Escherichia coli [12]) [µg/mL] | MIC [13] [µg/mL] | MIC (Citrobacter koseri) [µg/mL] | MIC (Escherichia coli [15]) [µg/mL] | MIC (Bacillus subtilis) [µg/mL] | MIC (Escherichia coli [16]) [µg/mL] | further results
Cc1c(N2CCNCC2)c(F)c2c(c1N)c(=O)c(C(=O)O)cn2C1CC1 | 0.031 (≈ 0.086 µM) | 4 (≈ 11.1 µM) | 0.25 (≈ 0.694 µM) | 0.031 (≈ 0.086 µM) | 0.5 (≈ 1.39 µM) | 0.13 (≈ 0.361 µM) | 0.13 (≈ 0.361 µM) | 0.063 (≈ 0.175 µM) | 16 (≈ 44.4 µM) | 0.063 (≈ 0.175 µM) | 0.25 (≈ 0.694 µM) | 4 (≈ 11.1 µM) | 1 (≈ 2.77 µM) | 0.25 (≈ 0.694 µM) | ≤ 0.008 | 16 (≈ 44.4 µM) | 0.063 (≈ 0.175 µM) | 0.031 (≈ 0.086 µM) | 0.031 (≈ 0.086 µM) | ≤ 0.008 | MIC (Pseudomonas aeruginosa [14]): 2 µg/mL (≈ 5.55 µM); MIC (Escherichia coli [17]): 0.5 µg/mL (≈ 1.39 µM); MIC (Enterobacter cloacae [18]): ≤ 0.008 µg/mL
Cc1c(N2CCNC(C)C2)c(F)c2c(c1N)c(=O)c(C(=O)O)cn2C1CC1 (configuration not stated) | 0.063 (≈ 0.168 µM) | 2 (≈ 5.34 µM) | 0.25 (≈ 0.668 µM) | 0.13 (≈ 0.347 µM) | 0.5 (≈ 1.34 µM) | 0.13 (≈ 0.347 µM) | 0.25 (≈ 0.668 µM) | 0.13 (≈ 0.347 µM) | 16 (≈ 42.7 µM) | 0.13 (≈ 0.347 µM) | 0.5 (≈ 1.34 µM) | 8 (≈ 21.4 µM) | 2 (≈ 5.34 µM) | 0.25 (≈ 0.668 µM) | 0.063 (≈ 0.168 µM) | 16 (≈ 42.7 µM) | 0.063 (≈ 0.168 µM) | 0.063 (≈ 0.168 µM) | 0.063 (≈ 0.168 µM) | 0.016 (≈ 0.0427 µM) | MIC (Pseudomonas aeruginosa [14]): 2 µg/mL (≈ 5.34 µM); MIC (Escherichia coli [17]): 0.5 µg/mL (≈ 1.34 µM); MIC (Enterobacter cloacae [18]): 0.016 µg/mL (≈ 0.0427 µM)
Cc1c(N2CCC(N)C2)c(F)c2c(c1N)c(=O)c(C(=O)O)cn2C1CC1 (configuration not stated) | 0.13 (≈ 0.361 µM) | 8 (≈ 22.2 µM) | 0.25 (≈ 0.694 µM) | 0.13 (≈ 0.361 µM) | 0.5 (≈ 1.39 µM) | 0.5 (≈ 1.39 µM) | 0.25 (≈ 0.694 µM) | 0.25 (≈ 0.694 µM) | 8 (≈ 22.2 µM) | 0.25 (≈ 0.694 µM) | 0.25 (≈ 0.694 µM) | 8 (≈ 22.2 µM) | 1 (≈ 2.77 µM) | 0.5 (≈ 1.39 µM) | 0.031 (≈ 0.086 µM) | 16 (≈ 44.4 µM) | 0.13 (≈ 0.361 µM) | 0.13 (≈ 0.361 µM) | 0.063 (≈ 0.175 µM) | 0.031 (≈ 0.086 µM) | MIC (Pseudomonas aeruginosa [14]): 4 µg/mL (≈ 11.1 µM); MIC (Escherichia coli [17]): 1 µg/mL (≈ 2.77 µM); MIC (Enterobacter cloacae [18]): 0.031 µg/mL (≈ 0.086 µM)
Cc1c(N2CCC(CN)C2)c(F)c2c(c1N)c(=O)c(C(=O)O)cn2C1CC1 (configuration not stated) | 0.13 (≈ 0.347 µM) | 0.25 (≈ 0.668 µM) | 0.031 (≈ 0.0828 µM) | 0.13 (≈ 0.347 µM) | 0.063 (≈ 0.168 µM) | 0.13 (≈ 0.347 µM) | 0.031 (≈ 0.0828 µM) | 0.031 (≈ 0.0828 µM) | 8 (≈ 21.4 µM) | 0.13 (≈ 0.347 µM) | 0.031 (≈ 0.0828 µM) | 4 (≈ 10.7 µM) | 1 (≈ 2.67 µM) | 0.25 (≈ 0.668 µM) | 0.031 (≈ 0.0828 µM) | 16 (≈ 42.7 µM) | 0.13 (≈ 0.347 µM) | 0.063 (≈ 0.168 µM) | 0.016 (≈ 0.0427 µM) | 0.016 (≈ 0.0427 µM) | MIC (Pseudomonas aeruginosa [14]): 2 µg/mL (≈ 5.34 µM); MIC (Escherichia coli [17]): 0.5 µg/mL (≈ 1.34 µM); MIC (Enterobacter cloacae [18]): 0.031 µg/mL (≈ 0.0828 µM)
O=C(O)c1cn(C2CC2)c2cc(N3CCNCC3)c(F)cc2c1=O [CIPROFLOXACIN] | – | 0.5 (≈ 1.51 µM) | 0.25 (≈ 0.754 µM) | ≤ 0.008 | 0.25 (≈ 0.754 µM) | 0.25 (≈ 0.754 µM) | 0.13 (≈ 0.392 µM) | – | 128 (≈ 386 µM) | – | 0.13 (≈ 0.392 µM) | 4 (≈ 12.1 µM) | 0.13 (≈ 0.392 µM) | 0.13 (≈ 0.392 µM) | ≤ 0.008 | 128 (≈ 386 µM) | 0.016 (≈ 0.0483 µM) | – | – | ≤ 0.008 | MIC (Escherichia coli [17]): 0.13 µg/mL (≈ 0.392 µM)
CC1COc2c(N3CCN(C)CC3)c(F)cc3c(=O)c(C(=O)O)cn1c23 (configuration not stated) [OFLOXACIN] | 0.063 (≈ 0.174 µM) | 2 (≈ 5.53 µM) | 0.5 (≈ 1.38 µM) | 0.13 (≈ 0.36 µM) | 0.25 (≈ 0.692 µM) | 0.25 (≈ 0.692 µM) | 0.25 (≈ 0.692 µM) | 0.13 (≈ 0.36 µM) | 64 (≈ 177 µM) | 0.13 (≈ 0.36 µM) | 0.5 (≈ 1.38 µM) | 2 (≈ 5.53 µM) | – | 0.25 (≈ 0.692 µM) | 0.031 (≈ 0.0858 µM) | 32 (≈ 88.6 µM) | 0.13 (≈ 0.36 µM) | 0.063 (≈ 0.174 µM) | 0.063 (≈ 0.174 µM) | – | MIC (Enterobacter cloacae [18]): 0.031 µg/mL (≈ 0.0858 µM)
